Results from patent publication US20160355483A1, “COMPOUND BINDING TO PPARG BUT NOT ACTING AS PROMOTER AND PHARMACEUTICAL COMPOSITION FOR TREATING PPARG-RELATED DISEASES CONTAINING SAME AS ACTIVE INGREDIENT” (Hyundai Pharm Co., Ltd., priority 2014, published 2016).

biological target: T1, PPARG (peroxisome proliferator activated receptor-gamma), GST-PPARG-LBD (Homo sapiens, UniProt P37231); experiment: LanthaScreen TR-FRET PPARG Competitive Binding Assay; parameters: key: “+” indicates the degree of the binding activity, and as the number of “+” increases, the binding activity is stronger; ++: “+” indicates the degree of the binding activity, and as the number of “+” increases, the binding activity is stronger; +++: “+” indicates the degree of the binding activity, and as the number of “+” increases, the binding activity is stronger; ++++: “+” indicates the degree of the binding activity, and as the number of “+” increases, the binding activity is stronger; conditions: degree of binding activity
T1 construct: 15 μL of 5 nM GST-PPARG-LBD and 5 nM Tb-GST-antibody were added; purchased Invitrogen PV4894
T1 sequence (P37231 238-503 limits assumed): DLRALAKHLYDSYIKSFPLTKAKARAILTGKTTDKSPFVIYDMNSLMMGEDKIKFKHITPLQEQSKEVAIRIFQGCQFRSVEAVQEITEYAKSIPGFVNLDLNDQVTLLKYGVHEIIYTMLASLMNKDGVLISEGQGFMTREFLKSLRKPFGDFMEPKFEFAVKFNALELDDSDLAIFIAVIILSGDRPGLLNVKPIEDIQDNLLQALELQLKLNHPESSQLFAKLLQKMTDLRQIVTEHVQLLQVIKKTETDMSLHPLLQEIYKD
Method: The following experiment was performed to evaluate the PPARG (peroxisome proliferator activated receptor-gamma) binding capacity and transcriptional activity of the compounds prepared in the examples of the invention. For the experiment, LanthaScreen™ TR-FRET PPARG Competitive Binding Assay Kit (PV4894, Invitrogen) was used according to the manufacturer's instruction. […] The mixture was loaded in a 384-well plate (Greiner, 784075) by 20 μL per well, followed by reaction at room temperature for 1 hour. Upon completion of the reaction, fluorescence value was measured by using Flexstation 3 (Molecular Devices) with time-resolved fluorescence (RFU) mode (excitation 1: 340 nm, emission 1: 518 nm, excitation 2: 340 nm, emission 2: 488 nm, integration delay 50 μs, integration 400 μs). The results were calculated by using 518 nm RFUs/488 nm RFUs ratio. The activity of the compounds of the invention was compared with that of the vehicle, which was calculated by ratio according to the formula [100%−compound of the example ratio/vehicle ratio]. At this time, the binding activity ratio to rosiglitazone was compared.

Binding assay (1 μLM)	SMILES
++++	C[C@H](NC(=O)c1ccc2c(c1)CCCN2Cc1cccc(-c2ccccc2C(=O)O)c1)c1ccc2ccccc2c1 [Example 120, (S)-3′-((6-((1-(naphthalene-2-yl)ethyl)carbamoyl)-3,4-dihydroquinoline-1(2H)-yl)methyl)-[1,1′-biphenyl]-2-carboxylic acid]
++	C[C@H](NC(=O)c1ccc2c(c1)OCCN2Cc1ccccc1-c1ccc(C(N)=O)cc1)c1ccccc1 [Example 143, (S)-4-((4′-carbamoyl-[1,1′-biphenyl]-2-yl)methyl)-N-(1-phenylethyl)-3,4-dihydro-2H-benzo[b][1,4]oxazine-7-carboxamide]
++	C[C@H](NC(=O)c1ccc2c(c1)OCCN2Cc1ccccc1-c1ccc(C(N)=O)cc1)c1ccc([N+](=O)[O-])cc1 [Example 150, (S)-4-((4′-carbamoyl-[1,1′-biphenyl]-2-yl)methyl)-N-(1-(4-nitrophenyl)ethyl)-3,4-dihydro-2H-benzo[b][1,4]oxazine-7-carboxamide]
+	O=C(NCc1ccncc1)c1ccc2c(c1)OCCN2Cc1ccc(-c2ccccc2C(=O)O)cc1 [Example 90, 4′-((7-((pyridine-4-ylmethyl)carbamoyl)-2H-benzo[b][1,4]oxazine-4(3H)-yl)methyl)-[1,1′-biphenyl]-2-carboxylic acid]
++++	C[C@H](NC(=O)c1ccc2c(c1)CCCN2Cc1cc(-c2ccccc2C(=O)O)ccc1F)c1ccc2ccccc2c1 [Example 137, (S)-4′-fluoro-3′-((6-((1-(naphthalene-2-yl)ethyl)carbamoyl)-3,4-dihydroquinoline-1(2)-yl)methyl)-[1,1′-biphenyl]-2-carboxylic acid]
+++	Cc1ccc([C@H](C)NC(=O)c2ccc3c(c2)CCCN3Cc2cccc(-c3ccccc3C(=O)O)c2F)cc1F [Example 130, (S)-2′-fluoro-3′-((6-((1-(3-fluoro-4-methylphenyl)ethyl)carbamoyl)-3,4-dihydroquinoline-1(2H)-yl)methyl)-[1,1′-biphenyl]-2-caboxylic acid]
+	C[C@H](NC(=O)c1ccc2c(c1)OCCN2Cc1ccccc1-c1ccc(C(=O)O)cc1)c1ccc(C#N)cc1 [Example 144, (S)-2′-((7-((1-(4-cyanophenyl)ethyl)carbamoyl)-2H-benzo[b][1,4]oxazine-4(3H)-yl)methyl)-[1,1′-biphenyl]-4-carboxylic acid]
++	C[C@H](NC(=O)c1ccc2c(c1)CCCN2Cc1cccc(-c2ccccc2C(=O)O)c1)c1ccc([N+](=O)[O-])cc1 [Example 119, (S)-3′-((6-((1-(4-nitrophenyl)ethyl)carbamoyl)-3,4-dihydroquinoline-1(2H)-yl)methyl)-[1,1′-biphenyl]-2-carboxylic acid]
+	Cc1ccc([C@H](C)NC(=O)c2ccc3c(c2)CCCN3Cc2ccccc2-c2ccc(C(N)=O)cc2)cc1F [Example 158, (S)-1-((4′-carbamoyl-[1,1′-biphenyl]-2-yl)methyl)-N-(1-(3-fluoro-4-methylphenyl)ethyl)-1,2,3,4-tetrahydroquinoline-6-carboxamide]
++++	Cc1ccc([C@H](C)NC(=O)c2ccc3c(c2)CCCN3Cc2cc(-c3ccccc3C(=O)O)ccc2F)cc1F [Example 138, (S)-4′-fluoro-3′-((6-((1-(3-fluoro-4-methylphenyl)ethyl)carbamoyl)-3,4-dihydroquinoline-1(2H)-yl)methyl)-[1,1′-biphenyl]-2-caboxylic acid]
+	O=C(NCc1ccc(Br)cc1)c1ccc2c(c1)OCCN2Cc1ccc(-c2ccccc2C(=O)O)cc1 [Example 73, 4′-((7-((4-bromobenzyl)carbamoyl)-2H-benzo[b][1,4]oxazine-4(3H)-yl)methyl)-[1,1′-biphenyl]-2-carboxylic acid]
+++	C[C@H](NC(=O)c1ccc2c(c1)OCCN2Cc1ccc(-c2ccccc2C(=O)O)c(F)c1)c1ccc2ccccc2c1 [Example 163, (S)-2′-fluoro-4′-((7-((1-(naphthalene-2-yl)ethyl)carbamoyl)-2H-benzo[b][1,4]oxazine-4(3H)-yl)methyl)-[1,1′-biphenyl]-2-carboxylic acid]
+++	C[C@H](NC(=O)c1ccc2c(c1)CCCN2Cc1ccc(-c2ccccc2C(N)=O)cc1)c1cccc(Cl)c1 [Example 35, (S)-1-((2′-carbamoyl-[1,1′-biphenyl]-4-yl)methyl)-N-(1-(3-chlorophenyl)ethyl)-1,2,3,4-tetrahydroquinoline-6-carboxamide]
+++	C[C@H](NC(=O)c1ccc2c(c1)CCCN2Cc1ccc(-c2ccccc2C(=O)O)cc1)c1cccc(OC(F)(F)F)c1 [Example 18, (S)-4′-((6-((1-(3-(trifluoromethoxy)phenyl)ethyl)carbamoyl)-3,4-dihydroquinoline-1(2H)-yl)methyl)-[1,1′-biphenyl]-2-carboxylic acid]
++	Cc1ccc([C@H](C)NC(=O)c2ccc3c(c2)OCCN3Cc2ccccc2-c2ccc(C(N)=O)cc2)cc1F [Example 148, (S)-4-((4′-carbamoyl-[1,1′-biphenyl]-2-yl)methyl)-N-(1-(3-fluoro-4-methylphenyl)ethyl)-3,4-dihydro-2H-benzo[b][1,4]oxazine-7-carboxamide]
+	COc1cccc(CNC(=O)c2ccc3c(c2)OCCN3Cc2ccc(-c3ccccc3C(=O)O)cc2)c1 [Example 72, 4′-((7-((3-methoxybenzyl)carbamoyl)-2H-benzo[b][1,4]oxazine-4(3H)-yl)methyl)-[1,1′-biphenyl]-2-carboxylic acid]
+	C[C@H](NC(=O)c1ccc2c(c1)OCCN2Cc1ccccc1-c1ccc(C(=O)O)cc1)c1ccc([N+](=O)[O-])cc1 [Example 146, (S)-2′-((7-((1-(4-nitrophenyl)ethyl)carbamoyl)-2H-benzo[b][1,4]oxazine-4 (3H)-yl)methyl)-[1,1′-biphenyl]-4-carboxylic acid]
+++	C[C@H](NC(=O)c1ccc2c(c1)CCCN2Cc1ccc(-c2ccccc2C(N)=O)cc1)c1ccc(C(F)(F)F)cc1 [Example 33, (S)-1-((2′-carbamoyl-[1,1′-biphenyl]-4-yl)methyl)-N-(1-(4-(trifluoromethyl)phenyl)ethyl)-1,2,3,4-tetrahydroquinoline-6-carboxamide]
++++	C[C@H](NC(=O)c1ccc2c(c1)OCCN2Cc1ccc(-c2ccccc2C(=O)O)cc1)c1ccc2ccccc2c1 [Example 87, (S)-4′-((7-((1-(naphthalene-2-yl)ethyl)carbamoyl)-2H-benzo[b][1,4]oxazine-4(3H)-yl)methyl)-[1,1′-biphenyl]-2-carboxylic acid]
++	C[C@H](NC(=O)c1ccc2c(c1)OCCN2Cc1ccc(-c2ccccc2C(=O)O)cc1)c1c(F)cccc1F [Example 83, (S)-4′-((7-((1-(2,6-fluorophenyl)ethyl)carbamoyl)-2H-benzo[b][1,4]oxazine-4(3H)-yl)methyl)-[1,1′-biphenyl]-2-carboxylic acid]
+++	C[C@H](NC(=O)c1ccc2c(c1)CCCN2Cc1cccc(-c2ccccc2C(N)=O)c1)c1ccccc1 [Example 117, (S)-1-((2′-carbamoyl-[1,1′-biphenyl]-3-yl)methyl)-N-(1-phenylethyl)-1,2,3,4-tetrahydroquinoline-6-carboxamide]
